Test results as given in patent publication US20190380978A1, “SOLID ORAL DOSAGE FORMS OF 2R,6R-HYDROXYNORKETAMINE OR DERIVATIVES THEREOF” (priority 2016, published 2019).

Tests used:
CYP2C8 = molecular target: T1, CYP2C8 (Homo sapiens, UniProt P10632); experiment: CYP inhibition assay, CYP2C8; type: in vitro ADME
T1 sequence (P10632 1-490): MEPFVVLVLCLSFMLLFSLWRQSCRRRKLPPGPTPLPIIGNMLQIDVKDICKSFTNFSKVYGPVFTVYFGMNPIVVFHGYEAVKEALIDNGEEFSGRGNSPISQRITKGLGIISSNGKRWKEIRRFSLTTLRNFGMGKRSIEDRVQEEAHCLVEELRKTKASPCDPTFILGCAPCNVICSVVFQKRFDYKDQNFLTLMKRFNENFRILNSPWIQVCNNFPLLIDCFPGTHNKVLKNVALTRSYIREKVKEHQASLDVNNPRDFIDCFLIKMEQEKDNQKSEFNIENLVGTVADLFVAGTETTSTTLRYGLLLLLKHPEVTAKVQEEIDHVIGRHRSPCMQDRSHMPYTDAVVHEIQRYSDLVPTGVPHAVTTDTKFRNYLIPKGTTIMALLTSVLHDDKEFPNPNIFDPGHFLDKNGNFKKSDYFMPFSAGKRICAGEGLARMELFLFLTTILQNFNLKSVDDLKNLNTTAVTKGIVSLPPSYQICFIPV
Text: (§1) Cytochrome P450s (CYPs) are a family of enzymes that play a primary role in the metabolism of a wide variety of drugs. 2R,6R-hydroxynorketamine was investigated for its potential to inhibit the action of 7 key CYP enzymes using an inhibition assay measuring reduction in the formation of metabolites compared to control.

[1] = system: α-amino-3-hydroxy-5-methyl-4-isoxazolepropionic acid receptor (AMPAR)-mediated currents; experiment: in vitro electrophysiological experiments (fEPSPs)
Experimental: The free (unbound) concentration of 2R,6R-hydroxynorketamine producing pharmacodynamics activity in the brain is estimated to be approximately 10 μM.

5-HT2A = 5-HT2A (Homo sapiens, UniProt P28223); experiment: binding to 5-HT2A receptor
Text: (§2) 2R,6R-hydroxynorketamine was investigated for binding to monoamine oxidases A and B, monoamine transporters, as well as a variety of 5HT receptors.

[2] = system: cryopreserved hepatocytes; experiment: in vitro hepatocyte stability assay, human; type: in vitro ADME
Experimental: (§3) 2R,6R-hydroxynorketamine was investigated using an in vitro hepatocyte stability assay, during which 2R,6R-hydroxynorketamine was incubated with cryopreserved hepatocytes from 3 test species.

UGT1A1 = molecular target: T2, UGT1A1 (Homo sapiens, UniProt P22309); experiment: UGT inhibition assay, UGT1A1; type: in vitro ADME
T2 sequence (P22309 26-533): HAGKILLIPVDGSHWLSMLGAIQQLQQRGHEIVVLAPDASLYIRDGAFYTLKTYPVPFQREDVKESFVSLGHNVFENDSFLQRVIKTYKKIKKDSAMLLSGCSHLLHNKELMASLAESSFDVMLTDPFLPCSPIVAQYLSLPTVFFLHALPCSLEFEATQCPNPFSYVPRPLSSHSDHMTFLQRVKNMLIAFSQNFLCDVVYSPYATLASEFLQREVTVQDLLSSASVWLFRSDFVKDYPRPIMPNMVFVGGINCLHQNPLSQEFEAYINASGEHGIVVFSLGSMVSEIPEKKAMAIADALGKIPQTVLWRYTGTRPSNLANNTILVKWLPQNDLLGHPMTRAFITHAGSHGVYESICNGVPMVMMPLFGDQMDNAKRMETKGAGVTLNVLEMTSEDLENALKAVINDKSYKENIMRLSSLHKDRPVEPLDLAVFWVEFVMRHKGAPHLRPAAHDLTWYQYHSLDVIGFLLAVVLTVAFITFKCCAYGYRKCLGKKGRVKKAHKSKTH
Text: 2R,6R-hydroxynorketamine was therefore investigated for its potential to inhibit this isozyme, along with that of the major UGT isozyme, UGT1A1, using a UGT inhibition assay.

CYP2C9 = CYP2C9 (Homo sapiens, UniProt P11712); experiment: CYP inhibition assay, CYP2C9; type: in vitro ADME
Text: as §1

CYP1A2 = molecular target: T3, CYP1A2 (Homo sapiens, UniProt P05177); experiment: CYP inhibition assay, CYP1A2; type: in vitro ADME
T3 sequence (P05177 1-516): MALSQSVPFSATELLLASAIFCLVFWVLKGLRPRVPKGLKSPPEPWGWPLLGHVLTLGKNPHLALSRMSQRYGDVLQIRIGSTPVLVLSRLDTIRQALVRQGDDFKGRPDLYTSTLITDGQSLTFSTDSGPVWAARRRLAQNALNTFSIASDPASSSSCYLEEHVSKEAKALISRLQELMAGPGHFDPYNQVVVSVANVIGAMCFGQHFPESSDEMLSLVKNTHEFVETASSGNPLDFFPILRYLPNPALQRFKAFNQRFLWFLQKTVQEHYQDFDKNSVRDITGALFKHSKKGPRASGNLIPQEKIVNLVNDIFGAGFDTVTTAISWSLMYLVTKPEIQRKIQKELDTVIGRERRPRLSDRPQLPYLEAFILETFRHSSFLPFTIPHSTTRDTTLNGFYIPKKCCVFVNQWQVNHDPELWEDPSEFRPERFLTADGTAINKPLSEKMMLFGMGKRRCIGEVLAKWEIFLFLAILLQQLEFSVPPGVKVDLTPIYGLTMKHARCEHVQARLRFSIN
Text: as §1

5-HT1, Non-Selective = experiment: binding to 5-HT1 receptors, non-selective
Text: as §2
An absence of interaction between 2R,6R-hydroxynorketamine and 5HT1 receptors is also of note. Rare postmarketing reports have described patients with weakness, hyperreflexia, and incoordination following the use of an SSRI and the 5HT1 agonist, sumatriptan. The possibility of such interactions should also be considered if other 5HT1 agonists are to be used in combination with SSRIs.

metabolite profiling = type: in vitro ADME; settings: hepatocyte data with metabolite profiling
Experimental: as §3

CYP2C9, sequence (P11712 whole entry): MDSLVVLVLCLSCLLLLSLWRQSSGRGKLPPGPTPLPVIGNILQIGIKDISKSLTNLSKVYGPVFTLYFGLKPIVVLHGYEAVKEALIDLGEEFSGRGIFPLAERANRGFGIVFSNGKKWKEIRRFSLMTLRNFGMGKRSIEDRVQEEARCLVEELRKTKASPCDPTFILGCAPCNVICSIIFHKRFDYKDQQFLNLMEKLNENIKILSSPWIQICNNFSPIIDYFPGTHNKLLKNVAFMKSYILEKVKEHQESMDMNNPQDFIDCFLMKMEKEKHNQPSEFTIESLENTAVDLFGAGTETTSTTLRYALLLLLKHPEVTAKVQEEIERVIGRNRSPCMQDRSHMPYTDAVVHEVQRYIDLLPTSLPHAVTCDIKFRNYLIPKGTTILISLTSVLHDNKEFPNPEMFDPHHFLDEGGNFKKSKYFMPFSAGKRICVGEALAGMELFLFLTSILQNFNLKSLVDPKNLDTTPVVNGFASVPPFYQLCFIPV
5-HT2A, sequence (P28223 whole entry): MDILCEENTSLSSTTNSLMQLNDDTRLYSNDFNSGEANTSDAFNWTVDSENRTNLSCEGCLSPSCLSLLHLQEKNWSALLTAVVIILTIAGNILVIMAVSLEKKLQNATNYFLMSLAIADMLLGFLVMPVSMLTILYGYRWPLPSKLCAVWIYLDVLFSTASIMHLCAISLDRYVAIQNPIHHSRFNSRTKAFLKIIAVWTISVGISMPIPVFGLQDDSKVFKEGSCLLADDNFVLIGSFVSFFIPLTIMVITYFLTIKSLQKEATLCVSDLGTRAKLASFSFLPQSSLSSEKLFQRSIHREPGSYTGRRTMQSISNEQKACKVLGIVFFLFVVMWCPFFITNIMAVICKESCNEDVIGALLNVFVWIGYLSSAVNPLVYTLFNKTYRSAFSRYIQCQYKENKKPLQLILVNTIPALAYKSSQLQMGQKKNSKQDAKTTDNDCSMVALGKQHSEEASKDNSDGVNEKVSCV

With `N[C@@]1(c2ccccc2Cl)CCC[C@@H](O)C1=O` [2R,6R-hydroxynorketamine] the “inhibition of CYP2C8” value (CYP2C8) was “did not inhibit”, the inhibition at 0.4 µM (CYP2C8; human, 0.4 μM) was 5.63% and the inhibition at 1 µM (CYP2C8; human, 1 μM) was 4.91%. It also gave an inhibition at 4 µM (CYP2C8; human, 4 μM) of 12.5%, an inhibition at 10 µM (CYP2C8; human, 10 μM) of 8.33% and an inhibition at 40 µM (CYP2C8; human, 40 μM) of 8.35%. The inhibition at 100 µM (CYP2C8; human, 100 μM) was 2.08%, the “field excitatory postsynaptic potentials (fEPSPs)” value ([1]; 10 μM, in vitro electrophysiology) was “increase” and the “free (unbound) concentration producing pharmacodynamics activity in the brain” value ([1]; estimated) was “approximately 10 μM”. For the same molecule, the “% Inhibition of Control Specific Binding” value (5-HT2A) was 0%, the “% of Control Specific Binding” value (5-HT2A) was 103.8% and the “binding to 5HT2A receptor subtype” value (5-HT2A) was “does not bind”. The CLint ([2]; Human hepatocytes) was −1.07 gL/min/10^6 cells, the “hepatic clearance in humans” value ([2]; human hepatocyte stability assay) was “does not undergo hepatic clearance” and the “inhibition of UGT1A1” value (UGT1A1) was “does not inhibit”. The “inhibition of CYP2C9” value (CYP2C9) was “did not inhibit”, the inhibition at 0.4 µM (CYP2C9; human, 0.4 μM) was 4.59% and the inhibition at 1 µM (CYP2C9; human, 1 μM) was 5.92%. The inhibition at 4 µM (CYP2C9; human, 4 μM) was 5.8%, the inhibition at 10 µM (CYP2C9; human, 10 μM) was 11.9% and the inhibition at 40 µM (CYP2C9; human, 40 μM) was -0.113%. For the same molecule, the inhibition at 100 µM (CYP2C9; human, 100 μM) was -1.33%, the IC50 (CYP1A2) was roughly 100 µM and the inhibition at 0.4 µM (CYP1A2; 0.4 μM) was 7.55%. It also gave an inhibition at 1 µM (CYP1A2; 1 μM) of 8.8%, an inhibition at 4 µM (CYP1A2; 4 μM) of 11.7% and an inhibition at 10 µM (CYP1A2; 10 μM) of 19.3%. The inhibition at 40 µM (CYP1A2; 40 μM) was 24.8%, the inhibition at 100 µM (CYP1A2; 100 μM) was 48.6% and the “% Inhibition of Control Specific Binding” value (5-HT1, Non-Selective) was −9%. The “% of Control Specific Binding” value (5-HT1, Non-Selective) was 105.4%, the “binding to 5HT1 receptors” value (5-HT1, Non-Selective) was “does not bind” and the “phase I metabolism by CYP enzymes” value (metabolite profiling) was “does not undergo phase I metabolism”. The “route of metabolism and excretion” value (metabolite profiling) was “glucuronidated and excreted via the renal system”.
